# Assay results published in ChEMBL document CHEMBL1201862, “PubChem BioAssay data set” (2004).
# The source made the active and inactive calls. Rule as the data show it, for most assays here: actives have a measured EC50 and inactives only a lower limit.
# How the values were obtained:
# [1] = target: T1, Replicative DNA helicase DnaB (Mycobacterium tuberculosis, UniProt P9WMR3); assay: DnaB intein splicing inhibitors, dose response, biochemical, cell-free fluorescence (AID 449749); type: functional
# T1 sequence (P9WMR3 whole entry): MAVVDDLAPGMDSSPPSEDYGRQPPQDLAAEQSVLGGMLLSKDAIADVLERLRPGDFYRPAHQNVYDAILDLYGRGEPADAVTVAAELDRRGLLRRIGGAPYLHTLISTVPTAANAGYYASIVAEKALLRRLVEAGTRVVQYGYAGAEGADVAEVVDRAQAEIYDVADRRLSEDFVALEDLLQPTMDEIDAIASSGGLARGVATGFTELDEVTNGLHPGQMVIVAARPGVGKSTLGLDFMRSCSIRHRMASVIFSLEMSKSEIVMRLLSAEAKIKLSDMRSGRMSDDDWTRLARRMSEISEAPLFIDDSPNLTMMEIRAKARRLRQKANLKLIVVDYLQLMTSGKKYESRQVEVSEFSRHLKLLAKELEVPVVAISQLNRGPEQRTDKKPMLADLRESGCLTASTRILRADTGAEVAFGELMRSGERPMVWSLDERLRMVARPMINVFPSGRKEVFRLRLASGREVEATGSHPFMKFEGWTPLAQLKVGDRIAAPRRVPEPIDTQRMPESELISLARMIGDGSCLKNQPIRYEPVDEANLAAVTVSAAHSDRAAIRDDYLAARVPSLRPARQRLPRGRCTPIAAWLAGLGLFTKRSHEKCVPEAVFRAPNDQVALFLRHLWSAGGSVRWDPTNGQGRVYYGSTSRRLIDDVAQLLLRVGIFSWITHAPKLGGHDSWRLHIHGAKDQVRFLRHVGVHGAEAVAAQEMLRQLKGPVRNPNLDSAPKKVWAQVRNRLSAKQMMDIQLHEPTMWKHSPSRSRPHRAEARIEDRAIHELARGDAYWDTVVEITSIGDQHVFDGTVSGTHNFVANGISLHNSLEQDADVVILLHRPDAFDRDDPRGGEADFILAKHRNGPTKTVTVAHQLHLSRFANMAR
# [2] = target: T2, Protein RecA (Mycobacterium tuberculosis, UniProt P9WHJ3); assay: Fluorescence Cell-Free Homogeneous Dose Retest to Identify Inhibitors of RecA-Intein Splicing Activity. [Related pubchem assays (depositor defined):AID2097, AID2223, AID489010, AID492950]; type: functional
# T2 sequence (P9WHJ3 whole entry): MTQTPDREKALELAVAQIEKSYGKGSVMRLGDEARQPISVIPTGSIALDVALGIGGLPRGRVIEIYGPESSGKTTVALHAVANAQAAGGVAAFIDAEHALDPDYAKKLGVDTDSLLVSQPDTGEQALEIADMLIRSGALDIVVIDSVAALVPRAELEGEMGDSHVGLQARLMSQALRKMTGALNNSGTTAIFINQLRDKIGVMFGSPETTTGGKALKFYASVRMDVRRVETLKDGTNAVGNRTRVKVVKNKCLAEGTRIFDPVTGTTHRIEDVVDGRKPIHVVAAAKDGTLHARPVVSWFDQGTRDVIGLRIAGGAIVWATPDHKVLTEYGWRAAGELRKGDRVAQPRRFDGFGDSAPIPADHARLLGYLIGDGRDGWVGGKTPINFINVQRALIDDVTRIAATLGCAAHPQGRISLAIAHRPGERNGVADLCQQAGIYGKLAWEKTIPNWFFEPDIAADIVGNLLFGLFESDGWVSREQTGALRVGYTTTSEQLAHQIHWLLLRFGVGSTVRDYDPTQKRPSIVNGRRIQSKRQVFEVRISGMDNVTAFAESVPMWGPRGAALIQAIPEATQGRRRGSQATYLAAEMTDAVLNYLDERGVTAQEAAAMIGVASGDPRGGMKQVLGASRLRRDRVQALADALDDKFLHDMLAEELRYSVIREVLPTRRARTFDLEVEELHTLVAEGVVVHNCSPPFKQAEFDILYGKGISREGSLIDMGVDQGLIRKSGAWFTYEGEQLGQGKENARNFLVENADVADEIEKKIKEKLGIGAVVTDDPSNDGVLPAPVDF
# [3] = target: T3, Heat shock factor protein 1 (Mus musculus, UniProt P38532); assay: decrease of HSF1-responsive luciferase luminescence – cell-based, NIH3T3, dose retest, confirmation (AID 2382); type: functional;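 also: NIH3T3 fibroblasts with HSF1-driven luciferase reporter stressed by proteasome inhibitor MG132; luminescence from HSF1-driven luciferase expression after 8 hours of MG132 stress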
# T3 sequence (P38532 whole entry): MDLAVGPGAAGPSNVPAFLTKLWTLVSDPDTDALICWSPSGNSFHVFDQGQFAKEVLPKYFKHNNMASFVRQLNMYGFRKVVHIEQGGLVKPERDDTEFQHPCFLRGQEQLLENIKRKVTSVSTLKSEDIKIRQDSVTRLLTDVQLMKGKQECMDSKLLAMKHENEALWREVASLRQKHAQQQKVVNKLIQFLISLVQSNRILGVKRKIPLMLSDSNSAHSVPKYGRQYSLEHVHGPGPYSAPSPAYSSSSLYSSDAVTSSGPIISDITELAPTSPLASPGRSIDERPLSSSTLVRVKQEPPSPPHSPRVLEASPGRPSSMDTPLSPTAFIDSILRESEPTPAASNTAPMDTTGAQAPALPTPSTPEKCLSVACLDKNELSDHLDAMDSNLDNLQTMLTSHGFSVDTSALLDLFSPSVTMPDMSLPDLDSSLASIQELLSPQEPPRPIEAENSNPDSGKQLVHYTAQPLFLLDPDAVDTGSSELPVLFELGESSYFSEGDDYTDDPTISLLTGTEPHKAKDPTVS
# [4] = system: H9c2; assay: cells; type: functional, cell-based; details: Rattus norvegicus, H9c2, Myocardium;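 also: confirmatory concentration-response retest of ultra-high-throughput screening hits for modulation of myocardial damage; cell death induced by hydrogen peroxide oxidative stress; compound pretreatment for 60 min then peroxide exposure for 2 h; potency is for protecting the cells against peroxide damage rather than for killing them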
# [5] = system: Streptococcus sp. 'group A'; assay: Streptococcus pyogenes SK(-)GAS viability under kanamycin – luminescence, BacTiterGlo, confirmation, counter-screen for streptokinase expression inhibitor project, dose response (AID 1900); type: functional, organism-based
# [6] = target: T4, Streptokinase A (Streptococcus pyogenes serotype M1, UniProt P10520); assay: viability-normalized secreted streptokinase activity reduction – plasminogen activation absorbance, OD405, dose response (AID 1914); type: functional, Streptococcus pyogenes M1 GAS;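 also: secreted streptokinase activity via plasminogen activation per viability signal from cell pellet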
# T4 sequence (P10520 whole entry): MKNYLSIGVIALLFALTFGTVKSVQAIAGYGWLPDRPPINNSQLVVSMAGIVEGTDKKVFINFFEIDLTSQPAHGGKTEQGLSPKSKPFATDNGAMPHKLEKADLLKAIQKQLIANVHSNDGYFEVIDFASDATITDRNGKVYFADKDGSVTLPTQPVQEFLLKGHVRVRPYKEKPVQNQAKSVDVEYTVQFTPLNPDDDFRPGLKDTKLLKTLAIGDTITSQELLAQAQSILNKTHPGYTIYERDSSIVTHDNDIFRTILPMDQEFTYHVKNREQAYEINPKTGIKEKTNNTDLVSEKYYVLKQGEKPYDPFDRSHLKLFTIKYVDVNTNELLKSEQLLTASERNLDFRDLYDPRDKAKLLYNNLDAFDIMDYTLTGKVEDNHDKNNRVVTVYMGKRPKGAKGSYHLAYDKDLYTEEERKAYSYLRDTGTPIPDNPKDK
# [7] = system: Streptococcus; assay: GAS UMAA2166 growth inhibition – luminescence, BacTiterGlo, counter-screen for streptokinase expression inhibitor project, dose response (AID 1915); type: functional, organism-based;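 also: potency for reduction of bacterial viability or growth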
# [8] = target: Cytochrome P450 3A4 (Homo sapiens, UniProt P08684);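 also: CYP3A4 tested as one member of a cytochrome P450 panel screen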
# Sequence of Cytochrome P450 3A4 (P08684 whole entry): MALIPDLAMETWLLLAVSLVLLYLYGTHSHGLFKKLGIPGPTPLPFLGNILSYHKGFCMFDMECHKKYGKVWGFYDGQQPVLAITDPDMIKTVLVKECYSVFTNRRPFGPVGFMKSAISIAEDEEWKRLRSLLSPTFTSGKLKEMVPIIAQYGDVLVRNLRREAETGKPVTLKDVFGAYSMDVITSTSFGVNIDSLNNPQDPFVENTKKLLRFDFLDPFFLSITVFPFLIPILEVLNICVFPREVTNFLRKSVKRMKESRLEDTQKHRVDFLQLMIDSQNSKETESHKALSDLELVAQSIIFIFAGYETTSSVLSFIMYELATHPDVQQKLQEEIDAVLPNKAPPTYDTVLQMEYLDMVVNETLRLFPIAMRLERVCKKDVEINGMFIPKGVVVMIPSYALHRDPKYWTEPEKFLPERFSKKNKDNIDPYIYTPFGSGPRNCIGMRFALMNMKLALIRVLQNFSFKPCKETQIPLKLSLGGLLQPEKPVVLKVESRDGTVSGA
# [9] = Trypanosoma cruzi growth suppression in host cells – NIH3T3 host cells, beta-gal luminescence, confirmation (AID 2044); type: functional, cell-based;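 also: intracellular parasites grown in NIH/3T3 mouse fibroblasts as host cells; luminescent beta-galactosidase reporter signal from transgenic T. cruzi replicating inside host cells; inhibitors lower the luminescence signal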
# [10] = NIH3T3 cell viability loss – ATP luminescence, mouse fibroblasts, counter-screen, dose response (AID 2010); type: functional, cell-based;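 also: cells exposed to compound for about 90 hours before reading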
smiles,measurement,setting,value
CCCc1n[nH]c2c1C(c1ccc(OCCN3CCOCC3)c(OC)c1)C(C#N)=C(N)O2 (centres undefined),AC50,[1],41.4 µM (active)
same,EC50,[2],9.37 µM (active)
Cc1ccc(C)c(C(=O)Nc2cc(C)nn2-c2nc(C)cc(C)n2)c1,EC50,[3],> 195 µM (not active)
same,IC50,[4],> 79 µM (inactive)
Cc1cccc2sc(NC(=O)[C@H](C)N3C(=O)C4CC=CCC4C3=O)nc12 (some centres undefined),EC50,[3],> 195 µM (not active)
COC(=O)c1ccccc1S(=O)(=O)N1CCC(NC(=O)c2ccccc2)CC1,AC50,[1],3.36 µM (active)
same,EC50,[2],15.1 µM (active)
CC(C)c1ccccc1NC(=O)COC(=O)c1c2c(nc3ccccc13)CCN(Cc1ccccc1)C2,IC50,[4],> 79 µM (inactive)
CCCC(C)NS(=O)(=O)c1ccccc1 (centres undefined),EC50,[3],> 195 µM (not active)
COc1cc(/C=C(\C#N)C(=O)Nc2ccccc2)ccc1OCCN1CCOCC1,IC50,[4],> 79 µM (inactive)
CC(C)c1ccc(OCCCN2CCCC2)cc1,EC50,[3],> 195 µM (not active)
CCOc1cc(C(=S)N2CCOCC2)ccc1OS(=O)(=O)c1ccc(OC)cc1,EC50,[3],> 195 µM (not active)
O=C(O)C1CSC(c2ccc3c(c2)OCO3)N1 (centres undefined),EC50,[3],> 195 µM (not active)
COc1cc2c(cc1OC)CN(c1nc(-c3cccnc3)nc3ccccc13)CC2,IC50,[4],> 79 µM (inactive)
Cc1cccc(Sc2c(C=O)c3ccccc3n2C)c1,AC50,[1],5.7 µM (active)
same,EC50,[2],29.6 µM (active)
COc1ccc(/C=C/C(=O)N2CCN(c3ccccn3)CC2)cc1OC,EC50,[3],> 195 µM (not active)
O=C1CC(CSc2ccc(Cl)cc2)=NN1,AC50,[1],3.23 µM (active)
same,EC50,[2],1.61 µM (active)
C=CCC(Nc1ccccc1)c1ccc(OC)c(OC)c1 (centres undefined),EC50,[3],> 195 µM (not active)
COc1cc2nc(S)n3nc(COc4ccccc4C)nc3c2cc1OC,EC50,[5],4.21 µM (active)
same,EC50,[6],> 150 µM (not active)
same,EC50,[7],10.5 µM (active)
CO[C@H]1COC(=O)[C@@H](C)COC(=O)[C@@H](Cc2ccccc2)NC(=O)C/C=C\[C@H]1C,AC50,[8],6.31 µM (inconclusive)
COc1ccccc1CNC(=O)N1CCN(c2ccccc2C)CC1,EC50,[3],> 195 µM (not active)
CCS(=O)(=O)N1CCC2(CC1)OCCN2S(=O)(=O)c1ccc(OC)cc1,EC50,[3],> 195 µM (not active)
O=C(NCC1CCN(Cc2ccccc2Cl)CC1)Nc1cccc(Cl)c1,EC50,[5],> 150 µM (not active)
same,EC50,[6],49.3 µM (active)
same,EC50,[7],> 150 µM (not active)
COc1cccc(CNC(=O)c2ccccc2SCC(=O)N2CCCC2)c1,EC50,[3],> 195 µM (not active)
CCOC(=O)c1[nH]c2cc(OC)c(OC)cc2c1NC(=O)C(C)N1CCN(Cc2ccccc2)CC1 (centres undefined),IC50,[4],10.2 µM (active)
Cc1ccc(CS(=O)(=O)CCC(=O)NCc2ccccn2)cc1,AC50,[8],31.6 µM (inconclusive)
CCOc1cc(/C=C/c2ccc3cccc([N+](=O)[O-])c3n2)ccc1OCC(=O)N(C)C,IC50,[4],10.7 µM (active)
CSc1ncccc1C(=O)N1CCCC(N2CCN(c3ccccc3F)CC2)C1 (centres undefined),EC50,[3],> 195 µM (not active)
Oc1ncnc2sc3c(c12)CCC3,IC50,[4],23 µM (active)
CC(C)c1nc2ccccc2c2nnc(SCC(=O)NCc3ccco3)n12,EC50,[3],> 195 µM (not active)
Cc1cc(C)nc(SCc2ccc(C(=O)N/N=C/c3ccccn3)cc2)n1,IC50,[4],> 79 µM (inactive)
COc1ccc(C2NC(S)=NC3=C2CCc2ccccc23)cc1OC (centres undefined),AC50,[1],20 µM (active)
same,EC50,[2],11.2 µM (active)
CCC1CCCCN1c1cc(C)nc2cc(-c3cccc(C)c3)nn12 (centres undefined),EC50,[5],6.17 µM (active)
same,EC50,[6],15.3 µM (active)
same,EC50,[7],13.7 µM (active)
O=C(O)CSc1c2c(nc3cc(C(=O)Nc4cccc(C(F)(F)F)c4)ccc13)CCCC2,AC50,[1],22.6 µM (active)
same,EC50,[2],13 µM (active)
CCOC(=O)/C(=N\Nc1ccc(OC)cc1)c1csc(Nc2ccccc2)n1,EC50,[5],3.87 µM (active)
same,EC50,[6],> 150 µM (not active)
same,EC50,[9],1.33 µM (active)
same,EC50,[10],9.87 µM (active)
same,EC50,[7],10.8 µM (active)
CCOC(=O)c1c(NC(=O)COC(=O)c2ccc(C)s2)sc2c1CC(C)(C)NC2(C)C,EC50,[5],2.43 µM (active)
same,EC50,[6],> 150 µM (not active)
same,EC50,[7],26.8 µM (active)
COc1ccc(N2C(=O)CC(NNc3ncc(Cl)cc3Cl)C2=O)cc1 (centres undefined),EC50,[3],> 195 µM (not active)
CCN(CC(=O)Nc1c(F)cccc1F)C(=O)Cn1[nH]c(=O)c2ccccc2c1=O,IC50,[4],> 79 µM (inactive)
Cc1c(C(=O)Nc2ccc3nc(N4CCOCC4)sc3c2)oc2ccccc12,IC50,[4],> 79 µM (inactive)
COc1ccc([N+](=O)[O-])cc1NC(=O)C(C)OC(=O)Cn1[nH]c(=O)c2ccccc2c1=O (centres undefined),IC50,[4],> 79 µM (inactive)
COc1cccc(-c2cnc3c(NC=O)cc(-c4cc(C)c(O)c(C)c4)cn23)c1,IC50,[4],> 79 µM (inactive)
COC(=O)c1[nH]c2ccccc2c1NC(=O)CNC1CCCCC1,IC50,[4],> 79 µM (inactive)
CCOC(=O)Cc1n[nH]c2c1C(c1cccc(OC)c1OC)C(C#N)=C(N)O2 (centres undefined),AC50,[1],34.7 µM (inconclusive)
same,EC50,[2],> 380 µM (inactive)
COc1ccc(-c2cc(-c3ccc(O)cc3)nc(N)c2C#N)cc1OC,IC50,[4],> 79 µM (inactive)
Cc1cc2c(=O)n(Cc3ccco3)c(SCC(=O)N3CCCc4ccccc43)nc2s1,EC50,[5],20.4 µM (active)
same,EC50,[6],31.8 µM (active)
same,EC50,[7],> 150 µM (not active)
